Experimental data as given in US20260000082A1, “STABILIZED LIQUID HERBICIDE FORMULATION OF HIGH-LOAD PYRASULFOTOLE” (ADAMA AGAN LTD., priority 2022, published 2026).

Experiment: Solubility of Pyrasulfotole in solvents with and without organic amine at room temp (24° C.)
Format: physicochemical
Details: for increase of solubility: 24° C.
Protocol: Some of the results are tabulated as follows:
Solubility of Pyrasulfotole in Dimethyl sulfoxide (DMSO) and in a mixture of Pyrasulfotole with DMSO and amine at room temp (24° C.) was tested.
Solubility of Pyrasulfotole in Cyclohexanone and in a mixture of Pyrasulfotole with Cyclohexanone and amine at room temp (24° C.) was tested.
Solubility of Pyrasulfotole in Propylene carbonate and in a mixture of Pyrasulfotole with Propylene carbonate and amine at room temp (24° C.) was tested.

## Cc1nn(C)c(O)c1C(=O)c1ccc(C(F)(F)F)cc1S(C)(=O)=O [Pyrasulfotole]
Cyclohexanone/Genamin C-50 66/34 versus Cyclohexanone alone
  increase of solubility: about 400%
DMSO/GENAMIN C-50 66/34 versus DMSO alone
  increase of solubility: about 26%
Propylene carbonate/Genamin C-50 70/30 versus Propylene carbonate alone
  increase of solubility: about 620%
Solvent Cyclohexanone, rate 100, room temp (24° C.)
  Solubility (%): 8.24%
Solvent Cyclohexanone/Genamin C-50, rate 66/34, room temp (24° C.)
  Solubility (%): 32.99%
Solvent DMSO, rate 100, room temp (24° C.)
  Solubility (%): 26.98%
Solvent DMSO/GENAMIN C-50, rate 66/34, room temp (24° C.)
  Solubility (%): 39.24%
Solvent Propylene carbonate, rate 100, room temp (24° C.)
  Solubility (%): 4.59%
Solvent Propylene carbonate/Genamin C-50, rate 70/30, room temp (24° C.)
  Solubility (%): 28.57%
